The source of these data is article PMC3226828 (Journal of medicinal chemistry, 2011).

Bounds are passed on as bounds.

Series [1] in a line: rat in vivo pharmacokinetics, IV and PO. The note with it: for CL / clearance: IV 1 mg/kg, hydrochloride, 10% EtOH, 80% PEG-400, 10% saline; for clearance: CL.
Series [2] has as its system mGlu1,2,3. To be noted: 10 point concentration-response prior to EC20 agonist.
In series [3] the test system is 68 GPCRs, ion channels and transporters. The series can be described thus: Ricerca Lead Profiling Screen. To be noted: 10 µM; all 68 assays. Format: binding.
Series [4] has as its system haloperidol-induced catalepsy. The series can be described thus: reversal of haloperidol-induced catalepsy. In kind it is in vivo. To be noted: rat, p.o., haloperidol 0.75 mg/kg, 30 min, vs vehicle control.
For series [5] the following is noted: previously reported tool compounds; cited from earlier work.
For series [6] the following is noted: previously reported tool compounds; cited from earlier work. The source holds these as a separate data set.
The conditions of series [7]: disclosed mGlu4 PAMs; cited from earlier work.
Series [8] can be described thus: IV cassette pharmacokinetics in rhesus monkey. To be noted: in vivo.
Series [9] is described as follows: IV cassette pharmacokinetics in beagle dog. The note with it: in vivo.

Take `O=C(Nc1ccc(N2C(=O)CC3(CCCCC3)C2=O)c(Cl)c1)c1ccccn1` [15j, N-(3-Chloro-4-(1,3-dioxo-2-azaspiro[4.5]decan-2-yl)phenyl)picolinamide]: the CL in series [1] (1 mg/kg) is listed as 48.3 mL/min/kg. In series [1] (in vivo, iv, 1 mg/kg), this molecule showed an MRT of 0.953 h and a clearance of 48 mL/min/kg.
In series [1] (1 mg/kg), `O=C(Nc1ccc(N2C(=O)[C@@H]3[C@H](C2=O)[C@@H]2C=C[C@H]3C2)c(Cl)c1)c1ccccn1` [15f] displayed a CL of 36.9 mL/min/kg. Besides, in [1] (in vivo, iv, 1 mg/kg), the MRT was 8.22 h, the Vd was 18 L/kg, the half-life came out at 0.673 h and the clearance is 37 mL/min/kg. The AUC(0-t) in series [1] (in vivo, po, 10 mg/kg) was 4350 ng·h/mL. In addition, in [2], the “activity at mGlu 1, 2, 3” value was “inactive”. The “inhibition of radioligand binding” value in series [3] is ≤ 50%. The “reversal of haloperidol-induced catalepsy” value in [4] is “produced a reversal of haloperidol-induced catalepsy”. In series [4] (listed as ML182), the “reversal of haloperidol-induced catalepsy” value was “orally active”.
For the molecule `COc1cc(NC(=O)c2ccccn2)ccc1Cl` [compound 2], the “rat CLHEP” value in series [5] is reported as 65.5 mL/min/kg. Further, the “rPPB (%fu)” value in [6] is recorded as 2.4 %fu. In series [7], the “CNS penetration when dosed systemically” value is recorded as “CNS penetrant”.
`O=C(Nc1ccc(N2C(=O)CC(c3ccccc3)C2=O)c(Cl)c1)c1ccccn1` (centres unmarked) [15k, N-(3-Chloro-4-(2,5-dioxo-3-phenylpyrrolidin-1-yl)phenyl)picolinamide] showed a mean residence time (MRT) in series [1] (in vivo, iv, 1 mg/kg) of 1.82 h. In addition, the clearance in [1] (in vivo, iv, 1 mg/kg) was determined as 5.4 mL/min/kg; in [8] it was 3 mL/min/kg; in [9] it was 7 mL/min/kg.
